From patent US20250352603A1, “VALERIAN COMPOSITION FOR SLEEP MANAGEMENT” (OMNIACTIVE HEALTH TECHNOLOGIES LIMITED, priority 2022, published 2025)

Columns and labels:
Assay type in all cases: in vivo, mice
[1] = system: brain tissue MDA, SOD, CAT, GPx; assay: Brain oxidative stress markers (MDA by HPLC; SOD, CAT, GPx by ELISA kits); settings: CM: caffeine then 2 mg/kg i.p.; vs C group
Method: (§1) Working solutions of caffeine, melatonin, and valerian were prepared on a daily basis and administered intraperitoneally (i.p.). Based on the previous studies caffeine-induced insomnia is dose-dependent with 7.5 mg/kg i.p. caffeine maintaining wakefulness for at least 2 h. Electrical activity of the brain was monitored for 90 minutes following the caffeine injection and spike frequency/spike amplitude analysis was performed via the Labchart 7.3.3 program. Ninety (90) minutes after the caffeine injection, animals were deeply anesthetized with 4% isofluorane (30% O2, remainder N2O). Brains were rapidly removed, frozen on dry ice and stored at −80° C. for further analysis.
(§2) Serum melatonin, serotonin, and dopamine was measured by ELISA kits. Brain levels of MDA was measured by HPLC. Brain activities of SOD, CAT and GPHx was measured using ELISA kits.

[2] = system: GABAAR2, GABAB R1, GABAB R2, 5-HT1A; assay: Western blot of brain GABAergic and serotonergic receptors; settings: CM: caffeine then 2 mg/kg i.p.; vs C group
Method: as §1
(§3) Protein concentrations were determined using Western blot analysis. 50 μg of protein was electrophoresed on 4-15% Tris-Glycine polyacrylamide gels and transferred to Immobilon-P PVDF membranes, blocked for 1 h in 5% skim milk and incubated overnight at 4° C. with either GABAAR2, GABAB R1, GABAB-R2, 5H-T1A, GluA1, GluN1, GluN2 A, Bcl-2, Bax, and Caspase-3. Membranes were then incubated with horseradish peroxidase (HRP) conjugated IgG secondary antibody. Bands were quantified using Image software and normalized to actin as a loading control.

[3] = system: serum serotonin, dopamine, melatonin; assay: Serum melatonin, serotonin and dopamine by ELISA kits; settings: CM: caffeine then 2 mg/kg i.p.
Method: as §1, §2

GluA1, GluN2A, GluN1 = assay: Western blot of brain glutamate receptors; settings: CM: caffeine then 2 mg/kg i.p.; vs C group
Method: as §1, §3

Bax, Bcl-2, Caspase-3 = assay: Western blot of brain Bax, Bcl-2 and Caspase-3; settings: CM: caffeine then 2 mg/kg i.p.; vs C group
Method: as §1, §3

SMILES: COc1ccc2[nH]cc(CCNC(C)=O)c2c1 [Melatonin]
- brain CAT [1]: significant increase
- brain GPx [1]: significant increase
- brain MDA levels [1]: significant reduction
- brain SOD [1]: significant increase
- brain 5-HT1A levels [2]: significantly increased
- brain GABAB R1 [2]: significant increase
- serum dopamine levels ([3]; vs C group): significant increase
- serum serotonin levels ([3]; vs C group): significant increase
- melatonin levels in serum ([3]; vs all the other groups): significantly higher
- brain GluA1 receptors (GluA1, GluN2A, GluN1): significant increase
- brain GluN1 receptors (GluA1, GluN2A, GluN1): significant increase
- brain GluN2A receptors (GluA1, GluN2A, GluN1): significant increase
- brain Bax (Bax, Bcl-2, Caspase-3): significant increase
- brain Bcl-2 (Bax, Bcl-2, Caspase-3): significant decrease
- brain Caspase-3 (Bax, Bcl-2, Caspase-3): significant increase
